Source: the NIST ThermoML archive (doi:10.1021/je034102r)
± gives the expanded uncertainty stated by the source.

Conditions: for mass density: 101.33 kPa, Liquid, Pycnometric method

CCCCn1cc[n+](C)c1.F[P-](F)(F)(F)(F)F [1-butyl-3-methylimidazolium hexafluorophosphate]
Conditions | Triple point temperature [K] | mass density [kg/m3]
298.23 K | – | 1365.95 ± 0.55
302.89 K | – | 1362.05 ± 0.56
307.9 K | – | 1357.94 ± 0.57
312.67 K | – | 1353.99 ± 0.58
317.58 K | – | 1349.92 ± 0.59
322.33 K | – | 1346.02 ± 0.61
327.16 K | – | 1342.02 ± 0.62
344.23 K | – | 1328.03 ± 0.65
348.93 K | – | 1324.35 ± 0.67
353.47 K | – | 1320.69 ± 0.68
Crystal | 283.51 ± 0.12 | –

Conditions | Glass transition temperature [°C]
Glass, Adiabatic calorimetry | -82.5 ± 2
